Assay results from BindingDB's records for doi:10.1021/acs.jmedchem.6b00703 (Novartis Institutes of Biomedical Research (Nibr), 2016).

Experiment: Inhibition of PDGFR-beta driven proliferation of rat A10 cells after 68 hrs in presence of rat recombinant PDGF-BB by cell titer-glo luminescence assay

IC50 [µM]	Compound
0.0027	Cn1nccc1-c1ccn2c(C(=O)Nc3cc(C(=O)NCC4CCC(C)(C)O4)ccc3F)cnc2c1 (configuration not stated)
0.012	Cc1ccc(C(=O)NCc2ccccc2)cc1NC(=O)c1cnn2ccccc12
0.023	CN(CCNC(=O)c1ccc(F)c(NC(=O)c2cnc3cc(-c4ccnn4C)ccn23)c1)C(C)(C)C
0.01	CN1CCN(c2ccccc2CNC(=O)c2ccc(F)c(NC(=O)c3cnn4cc(-c5ccnn5C)ccc34)c2)CC1
0.0036	CN1CCN(c2ccccc2CNC(=O)c2ccc(F)c(NC(=O)c3cnc4cc(-c5cnn(C)c5)ccn34)c2)CC1
0.0017	Cn1cc(-c2ccn3c(C(=O)Nc4cc(C(=O)NCCN5CCCC5(C)C)ccc4F)cnc3c2)cn1
0.019	CN1CCN(c2ccccc2CNC(=O)c2ccc(F)c(NC(=O)c3cnc4cc(-c5cc[nH]n5)ccn34)c2)CC1
0.0079	CN1CCN(c2ccccc2CNC(=O)c2ccc(F)c(NC(=O)c3cnc4cc(-c5cccnc5)ccn34)c2)CC1
0.0095	Cn1nccc1-c1ccn2c(C(=O)Nc3cc(C(=O)NCCN4CCCC4(C)C)ccc3F)cnc2c1
0.0092	CN1CCN(c2ccccc2CNC(=O)c2ccc(F)c(NC(=O)c3cnc4cc(-c5ccnn5C)ccn34)c2)CC1
0.035	Cc1ncc(C(=O)NCc2ccccc2N2CCN(C)CC2)cc1NC(=O)c1cnn2cc(-c3ccnn3C)ccc12
0.022	CCN(CCNC(=O)c1ccc(F)c(NC(=O)c2cnc3cc(-c4ccnn4C)ccn23)c1)C(C)(C)C
0.003	Cn1nccc1-c1ccn2c(C(=O)Nc3cc(C(=O)NCc4ccc(F)c(F)c4)ccc3F)cnc2c1
0.013	Cc1ncc(C(=O)NCCN2CCCC2(C)C)cc1NC(=O)c1cnn2cc(-c3cnn(C)c3)ccc12
0.162	Cc1ccc(NC(=O)c2ccc(CN3CCN(C)CC3)cc2)cc1Nc1nccc(-c2cccnc2)n1
0.0087	C[C@@H]1CCC[C@H](C)N1CCNC(=O)c1ccc(F)c(NC(=O)c2cnc3cc(-c4ccnn4C)ccn23)c1
0.036	CN1CCN(c2ccccc2CNC(=O)c2ccc(F)c(NC(=O)c3cnc4ccccn34)c2)CC1
